# Measured values taken from patent US9663486B2, “Selectively substituted quinoline compounds” (EISAI R&D MANAGEMENT CO., LTD., priority 2013, dated 2017).
# How the values were obtained:
# Human TLR4 = Human TLR4 (Homo sapiens, UniProt O00206); assay: HEK-293 NFkB-luciferase reporter assay, LPS stimulation; assay type: cell-based; parameters: stably and individually express human TLR4, TLR7 or TLR9 full-length ORF cDNAs; expressed in transfected cells; host or cells: HEK-293 (ATCC) with ELAM-1 NF-kappaB luciferase reporter; conditions: ligand LPS
# From the text: HEK-293 cells (ATCC) were engineered to stably express a NF-kappaB transcription factor inducible E-selectin (ELAM-1) luciferase reporter derived from the plasmid pGL3 (Promega) containing base pairs −2241 bp to −254 bp from the promoter of the human E-selectin gene (Accession No. NM_000450). These cells were then subsequently engineered to stably and individually express human TLR4, TLR7 or TLR9 full-length ORF cDNAs. Human TLR4 cDNA (Accession No. NM_138554) was cloned into pcDNA 3.0 expression vector (Invitrogen). TLR4 transfected cells were also engineered to express human MD-2 co-receptor [MD-2 cDNA (Accession No. NM_015364) was cloned into the pEF-BOS vector] and were supplemented with 10 nM soluble CD14 (R&D Systems) in the media to optimize LPS responsiveness. Human TLR9 cDNA (Accession No. NM_017442) was cloned into the pBluescript II KS vector (Agilent). Human TLR7 cDNA (Accession No. NM_016562) was obtained from OriGene. HEK-293 cells stably expressing human TLR8 (Accession No. NM_138636) or mouse TLR7 (Accession No. NM_133211) were purchased from InvivoGen and were then stably transfected with pNiFty2(NF-kappaB)-luciferase reporter plasmid (InvivoGen). Each cell type was plated in Dulbecco's modified Eagle's medium (DMEM) containing 10% fetal bovine serum (FBS) at a density of 2.22×10^5 cells/ml into a 384-well plate and incubated for 2 days at 37° C., 5% CO2. […]
# mouse TLR7 = target: T1, mouse TLR7 (Mus musculus, UniProt P58681); assay: Short-term in vivo (STIV) assay, plasma IL-6 after R848; conditions: plasma IL-6 after R848 s.c., BALB/c mice
# T1 construct: tissue Jackson Labs; host or cells: live female BALB/c mice
# T1 sequence (P58681 27-1050): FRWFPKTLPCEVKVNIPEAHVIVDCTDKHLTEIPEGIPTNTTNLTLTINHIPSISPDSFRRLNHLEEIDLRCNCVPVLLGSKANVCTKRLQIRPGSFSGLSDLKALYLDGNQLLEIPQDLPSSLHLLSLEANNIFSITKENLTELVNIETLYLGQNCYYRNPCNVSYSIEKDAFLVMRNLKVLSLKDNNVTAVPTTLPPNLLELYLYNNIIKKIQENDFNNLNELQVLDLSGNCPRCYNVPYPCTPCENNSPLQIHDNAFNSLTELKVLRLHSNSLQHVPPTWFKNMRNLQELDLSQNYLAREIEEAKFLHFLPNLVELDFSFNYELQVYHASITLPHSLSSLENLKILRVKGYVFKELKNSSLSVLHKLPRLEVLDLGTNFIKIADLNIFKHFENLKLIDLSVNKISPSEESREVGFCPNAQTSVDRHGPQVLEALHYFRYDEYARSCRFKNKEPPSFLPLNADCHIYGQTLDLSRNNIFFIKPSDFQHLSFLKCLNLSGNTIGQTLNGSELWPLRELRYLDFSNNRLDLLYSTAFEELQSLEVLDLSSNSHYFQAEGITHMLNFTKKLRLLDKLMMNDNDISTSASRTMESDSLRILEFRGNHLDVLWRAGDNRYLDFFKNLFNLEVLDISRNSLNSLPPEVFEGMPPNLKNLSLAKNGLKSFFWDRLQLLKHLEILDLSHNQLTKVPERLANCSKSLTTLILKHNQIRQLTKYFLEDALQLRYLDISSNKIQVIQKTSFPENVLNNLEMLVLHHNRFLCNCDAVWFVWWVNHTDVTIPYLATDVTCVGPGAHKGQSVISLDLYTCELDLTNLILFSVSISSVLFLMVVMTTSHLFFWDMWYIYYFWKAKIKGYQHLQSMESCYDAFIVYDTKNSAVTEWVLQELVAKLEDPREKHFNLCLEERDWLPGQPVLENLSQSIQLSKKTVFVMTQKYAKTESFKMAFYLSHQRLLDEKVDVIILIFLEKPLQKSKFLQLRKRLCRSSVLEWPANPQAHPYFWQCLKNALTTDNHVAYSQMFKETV
# Experimental: To assess compound potency in vivo against mouse TLR7, a short-term in vivo (STIV) assay was utilized. Briefly, mice were orally dosed with compounds and at various time points afterwards were injected subcutaneously with agonist R848 to stimulate TLR7. The plasma IL-6 level following R848 stimulation was then measured by ELISA to assess compound potency and duration-of-action. […] Therefore, the activity of compounds in the STIV assay can be confidently attributed to their modulation of the TLR7 pathway.
# Six to eight week old female BALB/c mice (Jackson Labs, Bar Harbor, Me.) were dosed by oral gavage in 200 ul volume with antagonist compounds formulated in 0.5% aqueous methyl-cellulose (Sigma, St. Louis, Mo.). At various time points afterwards, mice were injected subcutaneously (s.c.) in 100 ul volume with 15 ug R848 (Resiquimod; GLSynthesis, Worcester, Mass.) to stimulate TLR7. Blood plasma was collected by cardiac puncture, and levels of IL-6 at 1.5 hours after TLR7 stimulation were then assessed by standard ELISA procedure according to the manufacturer's recommended protocol (R&D Systems).
# Human TLR4, sequence (O00206 24-839): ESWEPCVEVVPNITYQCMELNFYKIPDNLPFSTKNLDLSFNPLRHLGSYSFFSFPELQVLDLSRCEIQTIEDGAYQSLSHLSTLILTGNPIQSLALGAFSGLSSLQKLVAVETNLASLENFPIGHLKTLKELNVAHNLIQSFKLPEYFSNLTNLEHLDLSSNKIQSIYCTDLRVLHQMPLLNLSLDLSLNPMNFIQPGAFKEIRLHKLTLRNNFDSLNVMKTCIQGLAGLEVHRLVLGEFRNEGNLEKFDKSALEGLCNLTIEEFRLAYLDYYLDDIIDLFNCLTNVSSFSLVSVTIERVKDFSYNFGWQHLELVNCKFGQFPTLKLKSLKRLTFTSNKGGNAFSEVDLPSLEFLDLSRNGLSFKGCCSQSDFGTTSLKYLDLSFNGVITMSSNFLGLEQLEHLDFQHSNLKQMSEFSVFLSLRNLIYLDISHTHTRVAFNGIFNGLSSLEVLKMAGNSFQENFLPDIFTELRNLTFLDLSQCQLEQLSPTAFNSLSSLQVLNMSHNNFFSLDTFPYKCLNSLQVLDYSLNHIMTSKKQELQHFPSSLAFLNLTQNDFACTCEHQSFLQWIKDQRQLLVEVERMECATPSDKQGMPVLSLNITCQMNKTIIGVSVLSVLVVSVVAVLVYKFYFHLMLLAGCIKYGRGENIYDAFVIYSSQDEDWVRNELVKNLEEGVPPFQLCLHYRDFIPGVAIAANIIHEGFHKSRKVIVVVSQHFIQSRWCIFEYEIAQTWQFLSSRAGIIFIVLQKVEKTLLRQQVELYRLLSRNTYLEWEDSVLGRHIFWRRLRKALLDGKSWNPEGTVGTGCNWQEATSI
# Human TLR4, sequence (Q9Y6Y9 19-160 partner): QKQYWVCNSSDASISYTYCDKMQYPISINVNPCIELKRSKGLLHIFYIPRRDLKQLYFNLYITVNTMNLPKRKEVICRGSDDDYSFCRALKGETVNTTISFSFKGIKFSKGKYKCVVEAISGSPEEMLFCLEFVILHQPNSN
smiles,measurement,setting,value
"C[C@H]1C[C@@H](N)CN(c2ccc(C#N)c3ncccc23)C1 [ER-888840, 5-((3R,5S)-3-amino-5-methylpiperidin-1-yl)quinoline-8-carbonitrile]",IC50,Human TLR4,> 10 µM
same,% Suppression vs. Vehicle,"mouse TLR7; 6 h after oral dose, 33 mg/kg",100%
same,% Suppression vs. Vehicle,"mouse TLR7; 13 hr after oral dose, 11 mg/kg",53%
same,% Suppression vs. Vehicle,"mouse TLR7; 13 hr after oral dose, 33 mg/kg",95%
same,% Suppression vs. Vehicle,"mouse TLR7; 13 hr after oral dose, 100 mg/kg",100%
same,% Suppression vs. Vehicle,"mouse TLR7; 24 hr after oral dose, 11 mg/kg",24%
same,% Suppression vs. Vehicle,"mouse TLR7; 24 hr after oral dose, 33 mg/kg",0%
same,% Suppression vs. Vehicle,"mouse TLR7; 24 hr after oral dose, 100 mg/kg",98%
same,% Suppression vs. Vehicle,"mouse TLR7; 24 hr after oral dose, 300 mg/kg",100%
